{
  "source": "paper PMC4935531",
  "about": "(Journal of Acquired Immune Deficiency Syndromes (1999), 2016)",
  "key": {"[1]": {"details": "cited from earlier work"}, "OCT1": {"tested_on": "OCT1", "details": "at 10 μM; cited from earlier work"}, "human OCT3": {"target": "T1, human OCT3 (Homo sapiens, UniProt O75751)", "T1 sequence (O75751 1-556)": "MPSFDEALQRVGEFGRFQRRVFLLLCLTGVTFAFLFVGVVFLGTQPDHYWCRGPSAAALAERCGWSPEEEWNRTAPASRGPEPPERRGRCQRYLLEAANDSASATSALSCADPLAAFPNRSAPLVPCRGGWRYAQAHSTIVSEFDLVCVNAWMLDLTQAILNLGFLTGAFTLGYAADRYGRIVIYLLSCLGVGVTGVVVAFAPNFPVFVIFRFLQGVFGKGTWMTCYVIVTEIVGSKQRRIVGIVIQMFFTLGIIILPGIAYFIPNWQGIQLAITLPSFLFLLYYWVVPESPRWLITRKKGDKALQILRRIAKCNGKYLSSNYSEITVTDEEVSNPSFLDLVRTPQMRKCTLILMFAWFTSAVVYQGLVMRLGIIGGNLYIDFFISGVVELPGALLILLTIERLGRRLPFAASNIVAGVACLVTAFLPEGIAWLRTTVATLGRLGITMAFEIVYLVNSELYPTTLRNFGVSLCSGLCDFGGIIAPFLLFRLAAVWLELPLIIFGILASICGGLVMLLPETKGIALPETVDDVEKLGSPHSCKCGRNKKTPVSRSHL", "assay": "Inhibition of probe substrate uptake by OCT3 in transfected MDCK-II cells", "type": "in vitro ADME", "details": "dolutegravir ≤10 μM; 10 µM [14C]metformin"}, "human PMAT": {"target": "T2, human PMAT (Homo sapiens, UniProt Q7RTT9)", "T2 sequence (Q7RTT9 1-530)": "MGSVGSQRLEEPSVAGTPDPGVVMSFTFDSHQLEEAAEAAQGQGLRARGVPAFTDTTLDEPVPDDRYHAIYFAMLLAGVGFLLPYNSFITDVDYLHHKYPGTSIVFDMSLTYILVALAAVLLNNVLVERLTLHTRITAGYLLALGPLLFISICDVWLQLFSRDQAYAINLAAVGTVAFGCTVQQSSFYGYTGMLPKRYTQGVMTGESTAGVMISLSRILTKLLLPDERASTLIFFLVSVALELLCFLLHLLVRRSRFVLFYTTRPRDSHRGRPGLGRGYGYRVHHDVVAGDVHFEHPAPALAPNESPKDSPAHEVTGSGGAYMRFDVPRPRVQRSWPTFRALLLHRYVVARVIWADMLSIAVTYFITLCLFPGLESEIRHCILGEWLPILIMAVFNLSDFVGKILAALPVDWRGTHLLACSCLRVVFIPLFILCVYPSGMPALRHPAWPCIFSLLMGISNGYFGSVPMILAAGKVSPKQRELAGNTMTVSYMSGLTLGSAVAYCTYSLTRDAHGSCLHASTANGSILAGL", "assay": "Inhibition of probe substrate uptake by PMAT in transfected MDCK-II cells", "type": "in vitro ADME", "details": "dolutegravir ≤100 μM; 10 µM [14C]metformin"}, "OCT2 [2]": {"tested_on": "OCT2", "details": "cited from earlier work"}, "OCT2 [3]": {"tested_on": "OCT2", "details": "cited from earlier work", "remark": "listed apart in the source"}, "Caco-2 cell monolayers": {"tested_on": "Caco-2 cell monolayers", "assay": "Cellular uptake of [14C]metformin in Caco-2 cell monolayers", "type": "in vitro ADME", "details": "dolutegravir 0.3-100 µM"}, "[4]": {"type": "in vivo, human", "details": "for Metformin t(1/2) with vs without co-administration of dolutegravir: dolutegravir 50 mg q24h or q12h"}, "[5]": {"assay": "Safety monitoring: drug-related adverse events in healthy subjects", "type": "in vivo, human", "details": "metformin 500 mg q12h alone or with dolutegravir 50 mg q24h or q12h"}, "[6]": {"details": "co-administration of cimetidine"}},
  "note": "Like-named read-outs stand apart in the source and are kept apart here.",
  "data": [
    {"smiles": "CN/C(=N/CCSCc1nc[nH]c1C)NC#N", "note": "[Cimetidine]", "values": [
      {"measurement": "Increase in metformin AUC", "setting": "[1]; [6]", "value": 40, "unit": "%"},
      {"measurement": "Increase in metformin peak concentration", "setting": "[1]; [6]", "value": 60, "unit": "%"}
    ]},
    {"smiles": "C[C@@H]1CCO[C@H]2Cn3cc(C(=O)NCc4ccc(F)cc4F)c(=O)c(O)c3C(=O)N12", "note": "[Dolutegravir]", "values": [
      {"measurement": "Inhibition of OCT1", "setting": "OCT1", "value": 22, "unit": "%"},
      {"measurement": "Inhibition of [14C]metformin transport by OCT3", "setting": "human OCT3", "value": "no inhibition"},
      {"measurement": "Inhibition of [14C]metformin uptake by PMAT", "setting": "human PMAT", "value": "no inhibition"},
      {"measurement": "Dolutegravir free fraction", "setting": "OCT2 [2]", "value": "≥ 1.1", "unit": "%"},
      {"measurement": "Cmax", "setting": "OCT2 [2]; read-out: Dolutegravir Cmax, twice daily dosing", "value": 13, "unit": "µM"},
      {"measurement": "IC50", "setting": "OCT2 [3]; read-out: IC50 for OCT2", "value": 1.9, "unit": "µM"},
      {"measurement": "IC50", "setting": "OCT2 [3]; read-out: OCT2 inhibitory potency, tetraethylammonium as the substrate", "value": 0.066, "unit": "µM"},
      {"measurement": "Effect on cellular uptake of metformin in the Caco-2 intestinal cell line", "setting": "Caco-2 cell monolayers", "value": "unaffected"}
    ]},
    {"smiles": "CN(C)C(=N)N=C(N)N", "note": "[Metformin]", "values": [
      {"measurement": "Decrease in metformin CL/F", "setting": "[4]; co-administration of dolutegravir 50 mg q12h", "value": 59, "unit": "%"},
      {"measurement": "Decrease in metformin CL/F", "setting": "[4]; co-administration of dolutegravir 50 mg q24h", "value": 44, "unit": "%"},
      {"measurement": "Metformin t(1/2) with vs without co-administration of dolutegravir", "setting": "[4]", "value": "unchanged"},
      {"measurement": "Metformin t(1/2) with vs without co-administration of dolutegravir", "setting": "[4]; listed as metformin", "value": "similar"},
      {"measurement": "Fraction of drug excreted unchanged in the urine", "setting": "[1]; within 24 hours, oral and intravenous administration", "value": 90, "unit": "%"},
      {"measurement": "Tolerability", "setting": "[5]", "value": "well tolerated"}
    ]}
  ]
}
